Data from US20250221988A1 (Cullgen (Shanghai), Inc., priority 2022, published 2025).
Read-outs that look alike come from different tables or passages of the source.

How the values were obtained:
MV4;11 cells = assay: Cell viability assay (CellTiter-Glo) in MV4;11 cells; assay type: cell-based; settings: MV4;11 cells, three days, read-out: MV4
Method: (§1) Cell Culture: RS4;11, MV4;11, MOLM-13 and other cells were cultured at 37° C. with 5% CO2 in RPMI 1640 or DMEM Medium supplemented with 10% fetal bovine serum. Cells were authenticated using the short tandem repeat (STR) assays. Mycoplasma test results were negative.
(§2) Cell viability assays: Cells were seeded at a density of 5000 cells per well in 96-well assay plates and treated with test compounds following a 8-point or 12-point 3-fold serial dilution. Three days later, cell viability was determined using the CellTiter-Glo assay kit according to the manufacturer's instructions. The dose-response curves were determined and IC50 values were calculated using the GraphPad Prism software following a nonlinear regression (least squares fit) method.
The IC50 values (nM) of each compound were determined in MV4;11 and MOLM-13 cells with or without gilteritinib (10 nM for MV4;11; and 20 nM for MOML-13) as described in the Materials and Methods subsection and calculated using the GraphPad Prism 5.0 software.

MOLM-13 cells = assay: Cell viability assay (CellTiter-Glo) in MOLM-13 cells; assay type: cell-based; settings: MOLM-13 cells, three days
Method: as §1
as §2, with “method. […]” for “method.”

[1] = Homo sapiens, MV4-11, 72 h, compound alone, 11 IC50
[2] = with 10 nM gilteritinib, 11 IC50 (nM) + 10 nM Gil
[3] = Homo sapiens, 72 h, compound alone, read-out: MOLM-13 IC50
[4] = with gilteritinib, read-out: MOLM-13 IC50 (nM) + 10 nM Gil

Structure (SMILES)	IC50 (MV4;11 cells; [1])	IC50 (MV4;11 cells; [2])	IC50 (MOLM-13 cells; [3])	IC50 (MOLM-13 cells; [4])
Cc1nc(-c2cn([C@H]3C[C@H](CCc4ccc5c(c4)CN(C4CCC(=O)NC4=O)C5=O)C3)nc2C2CC2)ccc1F (stereo partly drawn) [GS-753, 3-(5-(2-(Trans-3-(3-cyclopropyl-4-(5-fluoro-6-methylpyridin-2-yl)-1H-pyrazol-1-yl)cyclobutyl)ethyl)-1-oxoisoindolin-2-yl)piperidine-2,6-dione]	10 to 100 nM	< 10 nM	100 to 1000 nM	10 to 100 nM
Cn1nccc1-c1cn([C@H]2C[C@H](CNc3ccc4c(c3)C(=O)N(C3CCC(=O)NC3=O)C4=O)C2)nc1C1CC1 (stereo partly drawn) [GS-690, 5-(((Trans-3-(3′-cyclopropyl-2-methyl-1′H,2H-[3,4′-bipyrazol]-1′-yl)cyclobutyl)methyl)amino)-2-(2,6-dioxopiperidin-3-yl)isoindoline-1,3-dione]	> 1000 nM		> 1000 nM	
O=C1CCC(N2C(=O)c3ccc(NC[C@H]4C[C@H](n5nc(C6CC6)c6cncnc65)C4)cc3C2=O)C(=O)N1 (stereo partly drawn) [GS-663, 5-(((Trans-3-(3-cyclopropyl-1H-pyrazolo[3,4-d]pyrimidin-1-yl)cyclobutyl)methyl)amino)-2-(2,6-dioxopiperidin-3-yl)isoindoline-1,3-dione]	> 1000 nM		> 1000 nM	100 to 1000 nM
Cn1ccc2ccc(-c3cn([C@H]4C[C@H](CNc5ccc6c(c5)C(=O)N(C5CCC(=O)NC5=O)C6=O)C4)nc3C3CC3)nc21 (stereo partly drawn) [GS-722, 5-(((trans-3-(3-cyclopropyl-4-(1-methyl-1H-pyrrolo[2,3-b]pyridin-6-yl)-1H-pyrazol-1-yl)cyclobutyl)methyl)amino)-2-(2,6-dioxopiperidin-3-yl)isoindoline-1,3-dione]	10 to 100 nM	< 10 nM	10 to 100 nM	< 10 nM
Cn1cncc1-c1cn([C@H]2C[C@H](CNc3ccc4c(c3)C(=O)N(C3CCC(=O)NC3=O)C4=O)C2)nc1C1CC1 (stereo partly drawn) [GS-691, 5-(((Trans-3-(3-cyclopropyl-4-(1-methyl-1H-imidazol-5-yl)-1H-pyrazol-1-yl)cyclobutyl)methyl)amino)-2-(2,6-dioxopiperidin-3-yl)isoindoline-1,3-dione]	> 1000 nM		> 1000 nM	
Cc1nc(-c2cn(C3CC(F)(CNc4ccc5c(c4)C(=O)N(C4CCC(=O)NC4=O)C5=O)C3)nc2C2CC2)ccc1F (stereo not drawn) [GS-723, 5-(((Trans-3-(3-cyclopropyl-4-(5-fluoro-6-methylpyridin-2-yl)-1H-pyrazol-1-yl)-1-fluorocyclobutyl)methyl)amino)-2-(2,6-dioxopiperidin-3-yl)isoindoline-1,3-dione]	100 to 1000 nM	10 to 100 nM	100 to 1000 nM	10 to 100 nM
Cn1ccc2c(-c3cn([C@H]4C[C@H](CNc5ccc6c(c5)C(=O)N(C5CCC(=O)NC5=O)C6=O)C4)nc3C3CC3)ncc(F)c21 (stereo partly drawn) [GS-768, 5-(((Trans-3-(3-cyclopropyl-4-(7-fluoro-1-methyl-1H-pyrrolo[3,2-c]pyridin-4-yl)-1H-pyrazol-1-yl)cyclobutyl)methyl)amino)-2-(2,6-dioxopiperidin-3-yl)isoindoline-1,3-dione]	< 10 nM	< 10 nM	< 10 nM	< 10 nM
Cc1nc(-c2cn([C@H]3C[C@H](COc4ccc5c(c4)CN(C4CCC(=O)NC4=O)C5=O)C3)nc2C2CC2)ccc1F (stereo partly drawn) [GS-787, 3-(5-((Trans-3-(3-cyclopropyl-4-(5-fluoro-6-methylpyridin-2-yl)-1H-pyrazol-1-yl)cyclobutyl)methoxy)-1-oxoisoindolin-2-yl)piperidine-2,6-dione]	> 1000 nM		> 1000 nM	
O=C1CCC(N2C(=O)c3ccc(NC[C@H]4C[C@H](n5cc(-c6ncc(F)c7[nH]ccc67)c(C6CC6)n5)C4)cc3C2=O)C(=O)N1 (stereo partly drawn) [GS-733, 5-(((Trans-3-(3-cyclopropyl-4-(7-fluoro-1H-pyrrolo[3,2-c]pyridin-4-yl)-1H-pyrazol-1-yl)cyclobutyl)methyl)amino)-2-(2,6-dioxopiperidin-3-yl)isoindoline-1,3-dione]	< 10 nM	< 10 nM	< 10 nM	< 10 nM
O=C1CCC(N2C(=O)c3ccc(NC[C@H]4C[C@H](n5nc(C6CC6)c6c(N7CCNCC7)cccc65)C4)cc3C2=O)C(=O)N1 (stereo partly drawn) [GS-757, 5-(((Trans-3-(3-cyclopropyl-4-(piperazin-1-yl)-1H-indazol-1-yl)cyclobutyl)methyl)amino)-2-(2,6-dioxopiperidin-3-yl)isoindoline-1,3-dione]	> 1000 nM		> 1000 nM	
O=C1CCC(N2C(=O)c3ccc(NC[C@H]4C[C@H](n5nc(C6CC6)c6cccc(N7CCNCC7)c65)C4)cc3C2=O)C(=O)N1 (stereo partly drawn) [GS-765, 5-(((Trans-3-(3-cyclopropyl-7-(piperazin-1-yl)-1H-indazol-1-yl)cyclobutyl)methyl)amino)-2-(2,6-dioxopiperidin-3-yl)isoindoline-1,3-dione]	> 1000 nM	100 to 1000 nM	> 1000 nM	100 to 1000 nM
O=C1CCC(N2C(=O)c3ccc(NC[C@H]4C[C@H](n5cc(Nc6cccnc6)c(C6CC6)n5)C4)cc3C2=O)C(=O)N1 (stereo partly drawn) [GS-670, 5-(((Trans-3-(3-cyclopropyl-4-(pyridin-3-ylamino)-1H-pyrazol-1-yl)cyclobutyl)methyl)amino)-2-(2,6-dioxopiperidin-3-yl)isoindoline-1,3-dione]	10 to 100 nM	10 to 100 nM	100 to 1000 nM	10 to 100 nM
CC(C)n1ncc2cnc(-c3cn([C@H]4C[C@H](CNc5ccc6c(c5)C(=O)N(C5CCC(=O)NC5=O)C6=O)C4)nc3C(F)F)cc21 (stereo partly drawn) [GS-656, 5-(((Trans-3-(3-(difluoromethyl)-4-(1-isopropyl-1H-pyrazolo[4,3-c]pyridin-6-yl)-1H-pyrazol-1-yl)cyclobutyl)methyl)amino)-2-(2,6-dioxopiperidin-3-yl)isoindoline-1,3-dione]	10 to 100 nM	10 to 100 nM	100 to 1000 nM	10 to 100 nM
Cn1ncc2cnc(-c3cn([C@H]4C[C@H](CCc5ccc6c(c5)CN([C@@H]5CCC(=O)NC5=O)C6=O)C4)nc3C3CC3)cc21 [GS-766, 3-(5-(2-(Trans-3-(3-cyclopropyl-4-(1-methyl-1H-pyrazolo[4,3-c]pyridin-6-yl)-1H-pyrazol-1-yl)cyclobutyl)ethyl)-1-oxoisoindolin-2-yl)piperidine-2,6-dione]	< 10 nM	< 10 nM	< 10 nM	< 10 nM
O=C1CCC(N2C(=O)c3ccc(NC[C@H]4C[C@H](n5cc(-c6cc7nn([C@H]8CC[C@H](O)CC8)cc7cn6)c(C6CC6)n5)C4)cc3C2=O)C(=O)N1 (stereo partly drawn) [GS-789, 5-(((Trans-3-(3-cyclopropyl-4-(2-(trans-4-hydroxycyclohexyl)-2H-pyrazolo[4,3-c]pyridin-6-yl)-1H-pyrazol-1-yl)cyclobutyl)methyl)amino)-2-(2,6-dioxopiperidin-3-yl)isoindoline-1,3-dione]	< 10 nM	< 10 nM	< 10 nM	< 10 nM
O=C1CCC(N2C(=O)c3ccc(NC[C@H]4C[C@H](n5cc(-c6ncccc6OC6CC6)c(C6CC6)n5)C4)cc3C2=O)C(=O)N1 (stereo partly drawn) [GS-641, 5-(((Trans-3-(4-(3-cyclopropoxypyridin-2-yl)-3-cyclopropyl-1H-pyrazol-1-yl)cyclobutyl)methyl)amino)-2-(2,6-dioxopiperidin-3-yl)isoindoline-1,3-dione]	< 10 nM	< 10 nM	< 10 nM	< 10 nM
CN(C)c1ccccc1-c1cn([C@H]2C[C@H](CNc3ccc4c(c3)C(=O)N(C3CCC(=O)NC3=O)C4=O)C2)nc1C1CC1 (stereo partly drawn) [GS-650, 5-(((trans-3-(3-Cyclopropyl-4-(2-(dimethylamino)phenyl)-1H-pyrazol-1-yl)cyclobutyl)methyl)amino)-2-(2,6-dioxopiperidin-3-yl)isoindoline-1,3-dione]	10 to 100 nM	10 to 100 nM	100 to 1000 nM	10 to 100 nM
CN1CCC(Nc2cn([C@H]3C[C@H](CNc4ccc5c(c4)C(=O)N(C4CCC(=O)NC4=O)C5=O)C3)nc2C2CC2)CC1 (stereo partly drawn) [GS-666, 5-(((Trans-3-(3-cyclopropyl-4-((1-methylpiperidin-4-yl)amino)-1H-pyrazol-1-yl)cyclobutyl)methyl)amino)-2-(2,6-dioxopiperidin-3-yl)isoindoline-1,3-dione]	> 1000 nM		> 1000 nM	
O=C1CCC(N2C(=O)c3ccc(NC[C@H]4C[C@H](n5cc(-c6cc7c(cn6)cnn7[C@H]6CC[C@@H](O)CC6)c(C6CC6)n5)C4)cc3C2=O)C(=O)N1 (stereo partly drawn) [GS-782]	< 10 nM	< 10 nM	10 to 100 nM	< 10 nM
Cc1nc(-c2cn([C@H]3C[C@H](CNc4ccc5c(c4)CN([C@@H]4CCC(=O)NC4=O)C5=O)C3)nc2C2CC2)ccc1F [GS-801, (R)-3-(5-(((trans-3-(3-cyclopropyl-4-(5-fluoro-6-methylpyridin-2-yl)-1H-pyrazol-1-yl)cyclobutyl)methyl)amino)-1-oxoisoindolin-2-yl)piperidine-2,6-dione]			10 to 100 nM	
